Measurements published in ChEMBL document CHEMBL1201862, “PubChem BioAssay data set” (2004).
One block for each compound: values may come before it. The source made the active and inactive calls.

Key:
Format in all cases: functional
[1] = target: T1, High affinity choline transporter 1 (Homo sapiens, UniProt Q9GZV3); test: human choline transporter potentiators, potency – cell-based, 10-point CRC, membrane potential dye, dose response (AID 602376)
T1 sequence (Q9GZV3 whole entry): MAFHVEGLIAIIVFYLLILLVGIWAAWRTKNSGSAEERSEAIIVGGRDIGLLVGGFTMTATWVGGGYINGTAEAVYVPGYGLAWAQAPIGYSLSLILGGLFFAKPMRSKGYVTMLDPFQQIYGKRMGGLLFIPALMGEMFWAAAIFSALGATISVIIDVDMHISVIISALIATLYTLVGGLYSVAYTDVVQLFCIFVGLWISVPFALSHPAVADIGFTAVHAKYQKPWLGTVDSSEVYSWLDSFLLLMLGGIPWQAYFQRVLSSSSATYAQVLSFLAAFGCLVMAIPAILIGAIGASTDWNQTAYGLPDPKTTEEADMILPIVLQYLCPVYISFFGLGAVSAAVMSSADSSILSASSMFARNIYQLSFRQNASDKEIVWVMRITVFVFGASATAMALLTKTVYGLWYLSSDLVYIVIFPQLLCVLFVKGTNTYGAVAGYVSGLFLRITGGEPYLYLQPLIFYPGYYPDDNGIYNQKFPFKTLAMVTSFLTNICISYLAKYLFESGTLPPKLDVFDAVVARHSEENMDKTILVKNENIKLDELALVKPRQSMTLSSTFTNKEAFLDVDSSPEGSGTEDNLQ

[2] = target: T1, High affinity choline transporter 1; test: human choline transporter blockers, potency – cell-based, 10-point CRC, membrane potential dye, dose response (AID 588401);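 further: membrane potential dye fluorescence of choline-evoked depolarization via CHT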
[3] = target: T1, High affinity choline transporter 1; test: human choline transporter blockers, potency – cell-based, 5-point CRC, membrane potential dye, dose response (AID 504840)
[4] = target: Leucine-rich repeat serine/threonine-protein kinase 2 (Homo sapiens, UniProt Q5S007);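 further: value from a broad kinome-wide panel profiling study in which LRRK2 was one of the kinases tested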
[5] = target: Platelet-derived growth factor receptor beta (Homo sapiens, UniProt P09619);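 further: value comes from a kinome panel, with PDGFRB tested as one panel member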
[6] = target: Serine/threonine-protein kinase Nek2 (Homo sapiens, UniProt P51955)
[7] = target: Cyclin-dependent kinase 19 (Homo sapiens, UniProt Q9BWU1); test: Navigating the Kinome. Panel member name: CDC2L6
[8] = target: Dual specificity mitogen-activated protein kinase kinase 2 (Homo sapiens, UniProt P36507); test: Navigating the Kinome. Panel member name: MAP2K2
[9] = target: Tyrosine-protein kinase Fyn (Homo sapiens, UniProt P06241)
[10] = target: Fibroblast growth factor receptor 1 (Homo sapiens, UniProt P11362)
[11] = target: Mitogen-activated protein kinase kinase kinase kinase 2 (Homo sapiens, UniProt Q12851);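 further: measured as one member of a kinome-wide kinase panel, with MAP4K2 as the panel entry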
[12] = target: Serine/threonine-protein kinase Chk1 (Homo sapiens, UniProt O14757);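 further: measured as one member of a kinome-wide kinase profiling panel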
[13] = target: Dual specificity mitogen-activated protein kinase kinase 1 (Homo sapiens, UniProt Q02750); test: Navigating the Kinome. Panel member name: MAP2K1
[14] = target: Cyclin-dependent kinase 8 (Homo sapiens, UniProt P49336); test: Navigating the Kinome. Panel member name: CDK8
[15] = target: Vascular endothelial growth factor receptor 2 (Homo sapiens, UniProt P35968)
[16] = target: Tyrosine-protein kinase receptor TYRO3 (Homo sapiens, UniProt Q06418);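 further: TYRO3 value obtained as one member of a kinome-wide profiling panel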
[17] = target: Inhibitor of nuclear factor kappa-B kinase subunit epsilon (Homo sapiens, UniProt Q14164); test: Navigating the Kinome. Panel member name: IKBKE
[18] = target: ALK tyrosine kinase receptor (Homo sapiens, UniProt Q9UM73);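 further: ALK tested as one member of a kinase panel screen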
[19] = target: Serine/threonine-protein kinase TAO1 (Homo sapiens, UniProt Q7L7X3)
Activated CDC42 kinase 1 = Activated CDC42 kinase 1 (Homo sapiens, UniProt Q07912); test: Navigating the Kinome. Panel member name: ACK1
[20] = target: Mitogen-activated protein kinase 8 (Homo sapiens, UniProt P45983);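 further: value comes from one member of a kinome-wide kinase profiling panel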
[21] = target: Glycogen synthase kinase-3 beta (Homo sapiens, UniProt P49841);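 further: value comes from a broad kinome profiling panel, with GSK3B as the panel member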
[22] = target: Tyrosine-protein kinase BTK (Homo sapiens, UniProt Q06187)
[23] = target: Glycogen synthase kinase-3 alpha (Homo sapiens, UniProt P49840);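 further: GSK3A result taken from a broad kinome-wide kinase panel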
[24] = target: G protein-coupled receptor kinase 5 (Homo sapiens, UniProt P34947); test: Navigating the Kinome. Panel member name: GPRK5
[25] = target: Serine/threonine-protein kinase pim-1 (Homo sapiens, UniProt P11309)
[26] = target: DNA dC->dU-editing enzyme APOBEC-3G (Homo sapiens, UniProt Q9HC16); test: inhibition of APOBEC3G ssDNA deamination – biochemical, fluorescence, single-stranded DNA substrate, SAR follow-up (AID 602136); settings: read-out: IC50_Mean
[27] = target: DNA dC->dU-editing enzyme APOBEC-3A (Homo sapiens, UniProt P31941); test: SAR analysis of small molecule inhibitors of APOBEC3A DNA Deaminase via a fluorescence-based single-stranded DNA deaminase assay.; settings: read-out: IC50_Mean
Sequence of DNA dC->dU-editing enzyme APOBEC-3A (P31941 whole entry): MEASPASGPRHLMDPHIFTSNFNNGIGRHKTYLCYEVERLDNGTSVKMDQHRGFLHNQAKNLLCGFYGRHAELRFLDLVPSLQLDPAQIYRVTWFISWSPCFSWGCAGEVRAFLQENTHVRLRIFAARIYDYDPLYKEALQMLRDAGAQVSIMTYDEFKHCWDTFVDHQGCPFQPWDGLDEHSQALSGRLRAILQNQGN

Sequence of Glycogen synthase kinase-3 beta (P49841 whole entry): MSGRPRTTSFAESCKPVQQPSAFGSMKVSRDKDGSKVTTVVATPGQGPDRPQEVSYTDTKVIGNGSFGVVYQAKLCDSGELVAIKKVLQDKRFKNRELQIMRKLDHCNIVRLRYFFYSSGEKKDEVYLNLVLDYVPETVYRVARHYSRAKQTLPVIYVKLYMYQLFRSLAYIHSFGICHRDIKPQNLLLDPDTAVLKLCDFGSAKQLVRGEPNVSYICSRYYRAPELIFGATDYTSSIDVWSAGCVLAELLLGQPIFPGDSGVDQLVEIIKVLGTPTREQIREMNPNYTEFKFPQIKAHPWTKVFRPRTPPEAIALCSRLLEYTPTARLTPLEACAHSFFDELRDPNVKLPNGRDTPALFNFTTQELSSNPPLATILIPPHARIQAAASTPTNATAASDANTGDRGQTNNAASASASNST
Sequence of Dual specificity mitogen-activated protein kinase kinase 2 (P36507 whole entry): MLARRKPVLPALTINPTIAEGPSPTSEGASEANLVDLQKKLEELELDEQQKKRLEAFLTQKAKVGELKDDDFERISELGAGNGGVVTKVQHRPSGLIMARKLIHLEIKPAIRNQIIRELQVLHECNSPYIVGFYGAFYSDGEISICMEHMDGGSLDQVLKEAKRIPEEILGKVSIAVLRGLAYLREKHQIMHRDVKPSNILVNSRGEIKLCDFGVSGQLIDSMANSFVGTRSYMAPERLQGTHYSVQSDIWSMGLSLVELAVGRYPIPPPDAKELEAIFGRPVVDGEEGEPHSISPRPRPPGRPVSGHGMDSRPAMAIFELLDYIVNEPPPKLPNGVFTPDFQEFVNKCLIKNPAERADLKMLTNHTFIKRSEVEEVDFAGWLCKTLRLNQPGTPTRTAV
Sequence of Activated CDC42 kinase 1 (Q07912 whole entry): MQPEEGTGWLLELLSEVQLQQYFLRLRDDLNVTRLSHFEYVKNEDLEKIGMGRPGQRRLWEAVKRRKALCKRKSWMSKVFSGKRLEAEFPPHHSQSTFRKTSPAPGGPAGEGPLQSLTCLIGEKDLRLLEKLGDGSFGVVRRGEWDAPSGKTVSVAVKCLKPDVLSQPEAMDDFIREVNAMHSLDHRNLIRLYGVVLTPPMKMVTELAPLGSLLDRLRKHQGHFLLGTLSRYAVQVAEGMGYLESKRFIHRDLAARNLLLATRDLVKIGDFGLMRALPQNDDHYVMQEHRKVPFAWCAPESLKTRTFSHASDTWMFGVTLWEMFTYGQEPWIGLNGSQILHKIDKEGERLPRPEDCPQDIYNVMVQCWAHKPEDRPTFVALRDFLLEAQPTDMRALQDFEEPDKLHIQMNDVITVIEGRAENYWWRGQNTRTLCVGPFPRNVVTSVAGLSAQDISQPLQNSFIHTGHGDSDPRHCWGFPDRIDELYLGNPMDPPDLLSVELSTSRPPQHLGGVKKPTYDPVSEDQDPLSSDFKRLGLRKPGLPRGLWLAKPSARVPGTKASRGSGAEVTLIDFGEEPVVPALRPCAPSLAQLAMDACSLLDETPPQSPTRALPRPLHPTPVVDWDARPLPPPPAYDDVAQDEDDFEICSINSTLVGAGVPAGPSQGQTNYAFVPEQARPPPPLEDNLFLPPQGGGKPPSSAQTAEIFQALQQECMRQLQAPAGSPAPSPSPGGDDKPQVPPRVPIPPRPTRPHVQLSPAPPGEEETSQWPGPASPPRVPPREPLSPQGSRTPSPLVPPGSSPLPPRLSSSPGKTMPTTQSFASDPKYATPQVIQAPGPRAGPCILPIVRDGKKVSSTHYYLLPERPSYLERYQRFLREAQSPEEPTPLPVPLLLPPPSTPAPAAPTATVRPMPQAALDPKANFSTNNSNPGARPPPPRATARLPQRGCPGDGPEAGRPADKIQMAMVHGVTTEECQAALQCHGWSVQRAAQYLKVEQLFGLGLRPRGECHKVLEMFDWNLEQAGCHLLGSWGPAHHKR
Sequence of Mitogen-activated protein kinase 8 (P45983 whole entry): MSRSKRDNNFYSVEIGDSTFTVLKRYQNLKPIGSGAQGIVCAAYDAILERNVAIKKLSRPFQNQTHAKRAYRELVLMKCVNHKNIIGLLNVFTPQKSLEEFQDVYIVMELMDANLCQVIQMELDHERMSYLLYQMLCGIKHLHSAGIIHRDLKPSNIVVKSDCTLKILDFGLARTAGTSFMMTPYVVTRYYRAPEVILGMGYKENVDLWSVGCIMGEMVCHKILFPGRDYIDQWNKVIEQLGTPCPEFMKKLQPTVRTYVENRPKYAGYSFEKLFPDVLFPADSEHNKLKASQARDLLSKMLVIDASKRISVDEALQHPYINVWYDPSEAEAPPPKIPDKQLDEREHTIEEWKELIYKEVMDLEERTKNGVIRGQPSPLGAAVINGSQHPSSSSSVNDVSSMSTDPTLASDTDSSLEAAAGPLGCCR
Sequence of Glycogen synthase kinase-3 alpha (P49840 whole entry): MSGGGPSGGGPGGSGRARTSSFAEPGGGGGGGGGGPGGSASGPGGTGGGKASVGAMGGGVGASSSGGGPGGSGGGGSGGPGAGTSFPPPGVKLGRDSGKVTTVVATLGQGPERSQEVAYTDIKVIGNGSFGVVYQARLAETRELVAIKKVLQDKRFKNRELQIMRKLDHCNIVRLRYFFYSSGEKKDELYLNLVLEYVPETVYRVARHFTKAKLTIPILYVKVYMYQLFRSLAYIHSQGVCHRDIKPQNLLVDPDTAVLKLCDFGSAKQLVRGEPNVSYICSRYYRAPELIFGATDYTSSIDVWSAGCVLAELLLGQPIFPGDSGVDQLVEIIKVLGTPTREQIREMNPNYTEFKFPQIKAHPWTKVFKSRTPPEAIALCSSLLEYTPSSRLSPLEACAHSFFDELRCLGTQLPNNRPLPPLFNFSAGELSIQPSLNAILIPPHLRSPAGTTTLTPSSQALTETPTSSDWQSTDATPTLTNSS
Sequence of Mitogen-activated protein kinase kinase kinase kinase 2 (Q12851 whole entry): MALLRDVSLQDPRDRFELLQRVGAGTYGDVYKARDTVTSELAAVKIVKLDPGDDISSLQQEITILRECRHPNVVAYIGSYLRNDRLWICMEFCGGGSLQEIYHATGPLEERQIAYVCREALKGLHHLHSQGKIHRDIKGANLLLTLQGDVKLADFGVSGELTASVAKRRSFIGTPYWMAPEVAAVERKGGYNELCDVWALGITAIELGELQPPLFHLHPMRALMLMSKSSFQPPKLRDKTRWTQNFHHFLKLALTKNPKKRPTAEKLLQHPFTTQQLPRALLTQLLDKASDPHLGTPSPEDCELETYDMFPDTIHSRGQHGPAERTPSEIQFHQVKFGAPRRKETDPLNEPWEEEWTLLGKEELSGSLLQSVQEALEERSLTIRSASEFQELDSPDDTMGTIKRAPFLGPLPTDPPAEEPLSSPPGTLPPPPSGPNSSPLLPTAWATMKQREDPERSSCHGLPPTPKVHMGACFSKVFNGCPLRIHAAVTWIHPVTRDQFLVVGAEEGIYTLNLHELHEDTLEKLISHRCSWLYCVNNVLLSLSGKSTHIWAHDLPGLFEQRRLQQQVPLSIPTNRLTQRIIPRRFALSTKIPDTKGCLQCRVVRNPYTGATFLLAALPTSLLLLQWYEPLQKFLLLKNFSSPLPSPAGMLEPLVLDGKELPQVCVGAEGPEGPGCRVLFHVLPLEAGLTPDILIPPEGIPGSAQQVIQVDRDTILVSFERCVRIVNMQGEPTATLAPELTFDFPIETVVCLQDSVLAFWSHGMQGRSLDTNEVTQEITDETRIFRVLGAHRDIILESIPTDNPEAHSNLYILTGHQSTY
Sequence of Inhibitor of nuclear factor kappa-B kinase subunit epsilon (Q14164 whole entry): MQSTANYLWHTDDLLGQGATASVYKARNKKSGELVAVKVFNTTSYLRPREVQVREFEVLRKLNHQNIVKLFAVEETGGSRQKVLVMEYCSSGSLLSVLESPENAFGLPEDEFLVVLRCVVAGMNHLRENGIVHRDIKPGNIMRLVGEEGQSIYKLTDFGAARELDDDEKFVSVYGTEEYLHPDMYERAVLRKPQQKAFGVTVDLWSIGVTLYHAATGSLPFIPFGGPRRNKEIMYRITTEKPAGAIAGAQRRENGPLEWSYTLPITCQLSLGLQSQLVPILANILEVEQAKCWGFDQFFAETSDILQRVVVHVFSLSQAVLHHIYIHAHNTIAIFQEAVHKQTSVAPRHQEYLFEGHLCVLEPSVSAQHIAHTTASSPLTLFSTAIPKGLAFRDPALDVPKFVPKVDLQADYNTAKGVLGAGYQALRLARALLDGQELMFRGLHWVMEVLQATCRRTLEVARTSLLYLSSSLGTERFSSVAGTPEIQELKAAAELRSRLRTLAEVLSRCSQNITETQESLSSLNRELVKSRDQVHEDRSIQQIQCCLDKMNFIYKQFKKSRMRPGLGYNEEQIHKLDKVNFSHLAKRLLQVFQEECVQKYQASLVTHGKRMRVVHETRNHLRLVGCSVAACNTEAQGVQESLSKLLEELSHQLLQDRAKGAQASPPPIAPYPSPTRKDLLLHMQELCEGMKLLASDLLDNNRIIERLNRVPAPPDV
Sequence of DNA dC->dU-editing enzyme APOBEC-3G (Q9HC16 whole entry): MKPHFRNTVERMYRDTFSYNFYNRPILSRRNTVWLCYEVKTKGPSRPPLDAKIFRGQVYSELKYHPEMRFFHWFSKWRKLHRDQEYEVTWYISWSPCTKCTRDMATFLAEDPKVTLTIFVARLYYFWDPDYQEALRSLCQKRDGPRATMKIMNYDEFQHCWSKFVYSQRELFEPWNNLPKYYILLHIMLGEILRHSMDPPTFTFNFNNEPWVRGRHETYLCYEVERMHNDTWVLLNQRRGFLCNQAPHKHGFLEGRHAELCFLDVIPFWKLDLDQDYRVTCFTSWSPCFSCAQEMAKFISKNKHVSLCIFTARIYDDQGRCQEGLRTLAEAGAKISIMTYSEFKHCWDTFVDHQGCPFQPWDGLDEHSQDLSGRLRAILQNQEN

Structure (SMILES): COc1ccc(-c2nnc(SC(C)C(=O)NCc3ccc4c(c3)OCO4)n2Cc2ccco2)cc1 (stereo not drawn)
EC50 [1]: 24.3 µM (active)

IC50 [2]: 1.41 µM (active)
IC50 [3]: 4.1 µM (active)
Structure (SMILES): Cc1cccc(NC(=O)c2[nH]nc([N+](=O)[O-])c2Br)c1C

Ki [4]: 2.51 µM (active)
Ki [5]: 2 µM (active)
Ki [6]: 3.16 µM (active)
Ki [7]: 3.16 µM (active)
Ki [8]: 1.58 µM (active)
Ki [9]: 5.01 µM (active)
Ki [10]: 3.98 µM (active)
Ki [11]: 2.51 µM (active)
Ki [12]: 0.631 µM (active)
Ki [13]: 2.51 µM (active)
Ki [14]: 3.98 µM (active)
Ki [15]: 2 µM (active)
Ki [16]: 2.51 µM (active)
Ki [17]: 3.16 µM (active)
Ki [18]: 5.01 µM (active)
Ki [19]: > 6.31 µM (inactive)
Ki (Activated CDC42 kinase 1): 3.98 µM (active)
Ki [20]: 5.01 µM (active)
Ki [21]: 3.16 µM (active)
Ki [22]: 5.01 µM (active)
Ki [23]: 3.98 µM (active)
Ki [24]: 3.98 µM (active)
Ki [25]: 3.98 µM (active)
Structure (SMILES): O=c1[nH]n2ccccc2c1Br

Structure (SMILES): COc1ccc(-c2nnc(SCC(=O)c3cccc(Br)c3)[nH]2)cc1
IC50 [26]: > 99 µM (inactive)
IC50 [27]: > 99 µM (inactive)
